As a reminder, the melting point is the temperature of the solid-liquid transition.

The values below come from US6353017B1, “Dipeptide nitriles” (Novartis AG, priority 1997, dated 2002).

Regarding `COC(=O)c1cccc(OCCC(C#N)NC(=O)[C@H](Cc2cccc(C)c2)NC(=O)C(c2ccccc2)c2ccccc2)c1` (stereo partly drawn) [Example 305, N-[3-(3-(methoxycarbonyl)-phenoxy)-1-cyanopropyl]-3-methyl-Nα-(2,2-diphenylacetyl)-L-phenylalaninamide], the melting point lay within 152 to 153 °C.
